Experimental data taken from patent US20240366589A1, “NHE3-BINDING COMPOUNDS AND METHODS FOR INHIBITING PHOSPHATE TRANSPORT” (Ardelyx, Inc., priority 2013, published 2024).

Assays:
Human NHE3 = target: T1, Human NHE3 (Homo sapiens, UniProt P48764); assay: Cell-based NHE3 activity under prompt conditions (OK cells, BCECF pH recovery), human NHE3; details: prompt conditions
T1 construct: expressed in transfected cells; host or cells: Opossum kidney (OK) cells (ATCC), electroporation
T1 sequence (P48764 26-834): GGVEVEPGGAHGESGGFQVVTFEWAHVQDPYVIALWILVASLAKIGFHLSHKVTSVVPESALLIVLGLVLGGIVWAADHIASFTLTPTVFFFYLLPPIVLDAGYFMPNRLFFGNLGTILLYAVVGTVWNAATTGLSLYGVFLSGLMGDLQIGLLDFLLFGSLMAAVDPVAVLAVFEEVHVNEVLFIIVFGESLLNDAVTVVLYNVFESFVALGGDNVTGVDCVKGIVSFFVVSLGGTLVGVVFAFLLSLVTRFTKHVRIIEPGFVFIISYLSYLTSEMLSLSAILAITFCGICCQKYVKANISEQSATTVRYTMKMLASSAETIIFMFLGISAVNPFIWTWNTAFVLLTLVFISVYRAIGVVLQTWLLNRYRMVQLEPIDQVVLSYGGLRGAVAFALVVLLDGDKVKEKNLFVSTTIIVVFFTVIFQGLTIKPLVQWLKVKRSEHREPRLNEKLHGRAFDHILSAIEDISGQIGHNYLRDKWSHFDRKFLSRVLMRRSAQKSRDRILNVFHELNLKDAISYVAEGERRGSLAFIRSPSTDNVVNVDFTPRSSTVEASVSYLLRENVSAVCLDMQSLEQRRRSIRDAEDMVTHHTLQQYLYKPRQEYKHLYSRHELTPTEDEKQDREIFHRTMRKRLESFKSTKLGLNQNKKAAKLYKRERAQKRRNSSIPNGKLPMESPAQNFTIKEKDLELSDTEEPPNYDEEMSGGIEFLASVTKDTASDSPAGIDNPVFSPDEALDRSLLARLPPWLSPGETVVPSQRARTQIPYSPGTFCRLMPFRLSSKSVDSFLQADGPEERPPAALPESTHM
In short: (§1)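 Opossum kidney cells transfected with rat or human NHE3 underwent ammonium prepulse (20 mM NH4Cl, pH 7.4, 30 min) then 10 min in Na+-free buffer, room temperature.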

[1] = system: absorption of sodium from the intestinal lumen; assay: Inhibition of intestinal sodium absorption: urinary sodium (uNa) 16 h after single oral dose in rats; format: in vivo, rat; details: oral gavage, 16 h post-dose
In short: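 Urinary sodium mass over the 16 h after one oral gavage dose, measured by cation-exchange ion chromatography, reported as percent of water-vehicle group; ANOVA plus Dunnett's post hoc test. Groups of six 8-week-old Sprague-Dawley rats, housed individually in metabolic cages post-dose, fed and watered freely.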

Rat NHE3 = target: T2, Rat NHE3 (Rattus norvegicus, UniProt P26433); assay: Cell-based NHE3 activity under prompt conditions (OK cells, BCECF pH recovery), rat NHE3; details: prompt conditions
T2 construct: expressed in transfected cells; host or cells: Opossum kidney (OK) cells (ATCC), electroporation
In short: as §1

[2] = system: absorption of sodium from the intestinal lumen; assay: Fecal form score (FFS) 16 h after oral dose in rats; format: in vivo, rat; details: oral gavage, 16 h post-dose, scale 1-5
In short: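 Fecal form was scored at 16 h post-dose on a 1–5 wetness scale (normal pellet to liquid stream), with two independent observations averaged across six rats per group. Animals were 8-week-old Sprague-Dawley rats given test compound or water orally in the late afternoon and kept in metabolic cages.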

[3] = system: phosphorus and calcium levels in the urine of rats; assay: Urinary excretion of phosphate and calcium in rats (16 h overnight urine); format: in vivo, rat; details: rats, oral gavage, 16 h post-dose

T2 sequence (P26433 29-831): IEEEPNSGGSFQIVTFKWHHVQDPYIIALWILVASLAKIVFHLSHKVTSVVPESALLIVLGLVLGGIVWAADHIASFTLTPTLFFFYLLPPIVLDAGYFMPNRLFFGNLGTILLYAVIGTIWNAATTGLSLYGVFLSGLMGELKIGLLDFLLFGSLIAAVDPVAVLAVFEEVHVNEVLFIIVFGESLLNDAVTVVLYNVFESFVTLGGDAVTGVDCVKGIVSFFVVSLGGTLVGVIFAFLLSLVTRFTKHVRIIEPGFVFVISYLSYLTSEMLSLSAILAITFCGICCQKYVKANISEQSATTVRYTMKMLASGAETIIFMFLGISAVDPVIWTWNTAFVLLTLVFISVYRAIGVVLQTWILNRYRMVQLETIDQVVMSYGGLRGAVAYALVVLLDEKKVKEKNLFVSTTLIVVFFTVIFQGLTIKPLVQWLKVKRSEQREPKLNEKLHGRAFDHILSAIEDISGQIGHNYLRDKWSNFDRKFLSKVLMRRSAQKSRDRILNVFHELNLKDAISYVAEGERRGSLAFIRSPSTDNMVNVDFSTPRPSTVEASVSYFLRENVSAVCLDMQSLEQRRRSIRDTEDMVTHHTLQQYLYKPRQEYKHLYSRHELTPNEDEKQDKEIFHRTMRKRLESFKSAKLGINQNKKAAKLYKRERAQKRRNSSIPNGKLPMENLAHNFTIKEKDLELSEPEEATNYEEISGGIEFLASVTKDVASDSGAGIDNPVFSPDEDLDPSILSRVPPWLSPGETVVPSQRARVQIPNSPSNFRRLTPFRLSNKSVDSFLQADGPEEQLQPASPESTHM

C/C(=C\c1cc(F)c(Oc2ccc(S(=O)(=O)NCCOCCOCCOCCN)cc2)c(F)c1)C(=O)N=C(N)N [compound 4]
Prompt Human NHE3 pIC50 (Human NHE3): 6.80 | Urine Na % of control ([1]; dose 10 mg/kg): 84% | Prompt Rat NHE3 pIC50 (Rat NHE3): 6.90 | Fecal Form Score average ([2]; dose 10 mg/kg): 1 | Urine P % of control ([3]; dose 10 mg/kg): 106%

O=C(NCCCCNC(=O)NCCOCCOCCNS(=O)(=O)c1ccc(O[C@H]2c3ccccc3C[C@@H]2N2CCCCC2)cc1)NCCOCCOCCNS(=O)(=O)c1ccc(O[C@H]2c3ccccc3C[C@@H]2N2CCCCC2)cc1 (racemic) [compound 47]
IC50 (Human NHE3; read-out: Prompt Human NHE3 pIC50 (converted)): 15.8 nM | Urine Na % of control ([1]; dose 10 mg/kg): 73% | IC50 (Rat NHE3; read-out: Prompt Rat NHE3 pIC50 (converted)): 50.1 nM | Fecal Form Score average ([2]; dose 10 mg/kg): 1 | Urine P % of control ([3]; dose 10 mg/kg): 51%

CN1Cc2c(Cl)cc(Cl)cc2[C@H](c2cccc(S(=O)(=O)NCCOCCOCCOCCNC(=O)CN3CCN(c4nc(N5CCN(CC(=O)NCCOCCOCCOCCNS(=O)(=O)c6cccc([C@@H]7CN(C)Cc8c(Cl)cc(Cl)cc87)c6)CC5)nc(N5CCN(CC(=O)NCCOCCOCCOCCNS(=O)(=O)c6cccc([C@@H]7CN(C)Cc8c(Cl)cc(Cl)cc87)c6)CC5)n4)CC3)c2)C1 [compound 69]
Prompt Human NHE3 pIC50 (Human NHE3): 6.70 | Urine Na % of control ([1]; dose 10 mg/kg): 82% | Prompt Rat NHE3 pIC50 (Rat NHE3): 6.60 | Fecal Form Score average ([2]; dose 10 mg/kg): 1 | Urine P % of control ([3]; dose 10 mg/kg): 78%

O=C(NCCCCNC(=O)NCCOCCOCCNC(=O)Nc1cccc(O[C@H]2c3ccccc3C[C@@H]2N2CCCCC2)c1)NCCOCCOCCNC(=O)Nc1cccc(O[C@H]2c3ccccc3C[C@@H]2N2CCCCC2)c1 [compound 126]
Prompt Human NHE3 pIC50 (Human NHE3): 6.55 | Urine Na % of control ([1]; dose 10 mg/kg): 93% | Prompt Rat NHE3 pIC50 (Rat NHE3): <5.00 | Fecal Form Score average ([2]; dose 10 mg/kg): 1 | Urine P % of control ([3]; dose 10 mg/kg): 94%

N=C(N)Nc1nc(-c2cccc(S(=O)(=O)NCCOCCOCCN)c2)c2cc(Cl)ccc2n1 [compound 7]
Prompt Human NHE3 pIC50 (Human NHE3): 7.20 | Urine Na % of control ([1]; dose 10 mg/kg): 76% | Prompt Rat NHE3 pIC50 (Rat NHE3): 6.30 | Fecal Form Score average ([2]; dose 10 mg/kg): 1 | Urine P % of control ([3]; dose 10 mg/kg): 90%

CN1Cc2c(Cl)cc(Cl)cc2[C@H](c2cccc(S(=O)(=O)N(CCO)CCOCCOCCNC(=O)NCCCN(CCCNC(=O)NCCOCCOCCN(CCO)S(=O)(=O)c3cccc([C@@H]4CN(C)Cc5c(Cl)cc(Cl)cc54)c3)CCCNC(=O)NCCOCCOCCN(CCO)S(=O)(=O)c3cccc([C@@H]4CN(C)Cc5c(Cl)cc(Cl)cc54)c3)c2)C1 [compound 146]
Prompt Human NHE3 pIC50 (Human NHE3): 8.35 | Urine Na % of control ([1]; dose 3 mg/kg): 70% | Prompt Rat NHE3 pIC50 (Rat NHE3): 7.80 | Fecal Form Score average ([2]; dose 3 mg/kg): 2 | Urine P % of control ([3]; dose 3 mg/kg): 58%

C[C@@H](O)[C@H](NC(=O)NC(CCC(=O)NCCOCCOCCNS(=O)(=O)c1cccc([C@@H]2CN(C)Cc3c(Cl)cc(Cl)cc32)c1)(CCC(=O)NCCOCCOCCNS(=O)(=O)c1cccc([C@@H]2CN(C)Cc3c(Cl)cc(Cl)cc32)c1)CCC(=O)NCCOCCOCCNS(=O)(=O)c1cccc([C@@H]2CN(C)Cc3c(Cl)cc(Cl)cc32)c1)C(N)=O [compound 159]
Prompt Human NHE3 pIC50 (Human NHE3): 7.30 | Urine Na % of control ([1]; dose 3 mg/kg): 27% | Prompt Rat NHE3 pIC50 (Rat NHE3): 7.20 | Fecal Form Score average ([2]; dose 3 mg/kg): 2 | Urine P % of control ([3]; dose 3 mg/kg): 55%

CN(C)[C@H]1Cc2c(Cl)cc(Cl)cc2[C@@H]1Oc1ccc(S(=O)(=O)NCCOCCOCCNC(=O)CCC(=O)NCCOCCOCCNS(=O)(=O)c2ccc(O[C@H]3c4cc(Cl)cc(Cl)c4C[C@@H]3N(C)C)cc2)cc1 [compound 148]
Prompt Human NHE3 pIC50 (Human NHE3): 7.80 | Urine Na % of control ([1]; dose 3 mg/kg): 49% | Prompt Rat NHE3 pIC50 (Rat NHE3): 8.40 | Fecal Form Score average ([2]; dose 3 mg/kg): 1 | Urine P % of control ([3]; dose 3 mg/kg): 146%

NC(N)=Nc1nc(-c2ccc(N3CCN(CCOCCOCCOCCNC(=O)NCCOCCOCCNC(=O)CN(CCN(CC(=O)O)CC(=O)NCCOCCOCCNC(=O)NCCOCCOCCOCCN4CCN(c5ccc(-c6nc(N=C(N)N)nc7ccc(Cl)cc67)cc5)CC4)CC(=O)O)CC3)cc2)c2cc(Cl)ccc2n1 [compound 46]
Prompt Human NHE3 pIC50 (Human NHE3): 7.90 | Urine Na % of control ([1]; dose 10 mg/kg): 58% | Prompt Rat NHE3 pIC50 (Rat NHE3): 7.80 | Fecal Form Score average ([2]; dose 10 mg/kg): 1 | Urine P % of control ([3]; dose 10 mg/kg): 112%

CN1Cc2c(Cl)cc(Cl)cc2[C@H](c2cccc(S(=O)(=O)NCCOCCOCCNC(=O)NCCN(CCNC(=O)NCCOCCOCCNS(=O)(=O)c3cccc([C@@H]4CN(C)Cc5c(Cl)cc(Cl)cc54)c3)CCNC(=O)NCCOCCOCCNS(=O)(=O)c3cccc([C@@H]4CN(C)Cc5c(Cl)cc(Cl)cc54)c3)c2)C1 [compound 76]
Prompt Human NHE3 pIC50 (Human NHE3): 6.40 | Urine Na % of control ([1]; dose 1 mg/kg): 58% | Urine Na % of control ([1]; dose 3 mg/kg): 40% | Urine Na % of control ([1]; dose 10 mg/kg): 12% | Prompt Rat NHE3 pIC50 (Rat NHE3): 5.60 | Fecal Form Score average ([2]; dose 1 mg/kg): 1 | Fecal Form Score average ([2]; dose 3 mg/kg): 2 | Fecal Form Score average ([2]; dose 10 mg/kg): 3 | Urine P % of control ([3]; dose 1 mg/kg): 96% | Urine P % of control ([3]; dose 3 mg/kg): 89% | Urine P % of control ([3]; dose 10 mg/kg): 61%

CN1Cc2c(Cl)cc(Cl)cc2[C@H](c2cccc(S(=O)(=O)NCCOCCOCCNC(=O)CN(CCOCCOCCN(CC(=O)NCCOCCOCCNS(=O)(=O)c3cccc([C@@H]4CN(C)Cc5c(Cl)cc(Cl)cc54)c3)CC(=O)NCCOCCOCCNS(=O)(=O)c3cccc([C@@H]4CN(C)Cc5c(Cl)cc(Cl)cc54)c3)CC(=O)NCCOCCOCCNS(=O)(=O)c3cccc([C@@H]4CN(C)Cc5c(Cl)cc(Cl)cc54)c3)c2)C1 [compound 85]
Prompt Human NHE3 pIC50 (Human NHE3): 6.10 | Urine Na % of control ([1]; dose 10 mg/kg): 92% | Prompt Rat NHE3 pIC50 (Rat NHE3): 5.80 | Fecal Form Score average ([2]; dose 10 mg/kg): 1 | Urine P % of control ([3]; dose 10 mg/kg): 85%

CN(CC(=O)NCCOCCOCCNC(=O)NCCOCCOCCN1CCN(c2cccc(-c3nc(NC(=N)N)nc4ccc(Cl)cc34)c2)CC1)CC(=O)NCCOCCOCCNC(=O)NCCOCCOCCN1CCN(c2cccc(-c3nc(NC(=N)N)nc4ccc(Cl)cc34)c2)CC1 [compound 33]
Prompt Human NHE3 pIC50 (Human NHE3): 7.90 | Urine Na % of control ([1]; dose 10 mg/kg): 98% | Prompt Rat NHE3 pIC50 (Rat NHE3): 7.40 | Fecal Form Score average ([2]; dose 10 mg/kg): 1 | Urine P % of control ([3]; dose 10 mg/kg): 117%

O=C(NCCOCCOCCNS(=O)(=O)c1ccc(O[C@H]2c3ccccc3C[C@@H]2N2CCCCC2)cc1)c1cccc(C(=O)NCCOCCOCCNS(=O)(=O)c2ccc(O[C@H]3c4ccccc4C[C@@H]3N3CCCCC3)cc2)c1 [compound 101]
Prompt Human NHE3 pIC50 (Human NHE3): 8.10 | Urine Na % of control ([1]; dose 10 mg/kg): 64% | Prompt Rat NHE3 pIC50 (Rat NHE3): <5.00 | Fecal Form Score average ([2]; dose 10 mg/kg): 1 | Urine P % of control ([3]; dose 10 mg/kg): 81%
